From US20240286998A1, “F[…], ANALOGUES THEREOF, AND METHODS USING SAME” (Saint Joseph's University, priority 2021, published 2024)
Read-outs that look alike come from different tables or passages of the source.

Assays:
[1] = biological target: 5-HT2B (Homo sapiens (Human), UniProt P41595); assay: 5-HT2B Gq-mediated calcium flux functional assay; type: cell-based
[2] = biological target: 5-HT1A (Homo sapiens (Human), UniProt P08908); assay: 5-HT1A Gi/o-mediated cAMP inhibition, GloSensor assay; type: cell-based
[3] = biological target: 5-HT2A (Homo sapiens (Human), UniProt P28223); assay: 5-HT2A Gq-mediated calcium flux functional assay; type: cell-based
[4] = biological target: 5-HT2C (Homo sapiens (Human), UniProt P28335); assay: 5-HT2C Gq-mediated calcium flux functional assay; type: cell-based
[5] = biological target: Serotonin 5-HT2A (human) (Homo sapiens (Human), UniProt P28223); assay: 5-HT2A receptor binding, [3H]-ketanserin competition in membrane fractions; details: 1 nM [3H]-ketanserin, Cheng-Prusoff, N=1-3
[6] = cAMP inhibition, 0.2 μM isoproterenol, IA = Inactive
[7] = IA = Inactive, N=1-3, read-out: 5-HT2B-Ca2+ FLUX pEC50 (converted)
[8] = IA = Inactive, N=1-3, read-out: 5-HT2A-Ca2+ FLUX pEC50 (converted)

5-HT2B, sequence (P41595 whole entry): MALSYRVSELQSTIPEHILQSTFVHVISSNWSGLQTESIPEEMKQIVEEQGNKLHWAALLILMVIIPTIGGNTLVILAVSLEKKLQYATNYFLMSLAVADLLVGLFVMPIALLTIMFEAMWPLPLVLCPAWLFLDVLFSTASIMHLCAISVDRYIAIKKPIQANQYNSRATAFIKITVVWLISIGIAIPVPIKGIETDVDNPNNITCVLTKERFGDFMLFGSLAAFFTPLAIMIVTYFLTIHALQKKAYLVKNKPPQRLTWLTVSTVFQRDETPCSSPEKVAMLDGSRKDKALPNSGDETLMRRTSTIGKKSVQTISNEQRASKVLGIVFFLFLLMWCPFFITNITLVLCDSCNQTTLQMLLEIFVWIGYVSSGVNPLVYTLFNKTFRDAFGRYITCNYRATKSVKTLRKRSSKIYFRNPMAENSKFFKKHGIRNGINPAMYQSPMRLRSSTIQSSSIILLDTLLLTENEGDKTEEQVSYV
5-HT2C, sequence (P28335 whole entry, looked up): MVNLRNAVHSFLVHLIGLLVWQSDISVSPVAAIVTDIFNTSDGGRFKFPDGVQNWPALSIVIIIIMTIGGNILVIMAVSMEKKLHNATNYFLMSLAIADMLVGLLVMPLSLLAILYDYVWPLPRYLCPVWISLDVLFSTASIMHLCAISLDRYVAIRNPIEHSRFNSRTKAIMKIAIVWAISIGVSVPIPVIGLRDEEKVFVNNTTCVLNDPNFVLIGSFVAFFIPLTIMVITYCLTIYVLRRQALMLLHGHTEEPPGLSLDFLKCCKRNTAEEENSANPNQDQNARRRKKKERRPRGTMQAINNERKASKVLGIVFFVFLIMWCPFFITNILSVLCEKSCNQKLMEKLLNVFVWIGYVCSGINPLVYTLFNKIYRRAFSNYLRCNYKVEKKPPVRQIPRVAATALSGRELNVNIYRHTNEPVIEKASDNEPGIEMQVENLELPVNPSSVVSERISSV

Row | Compound | 5-HT2B-Ca2+ FLUX Emax (% 5-HT) ([1]; IA = Inactive, N=1-3) | 5-HT2A-Ca2+ FLUX Emax (% 5-HT) ([3]; IA = Inactive, N=1-3) | 5-HT2C-Ca2+ FLUX Emax (% 5-HT) ([4]; IA = Inactive, N=1-3) | 5-HT2A pKi ± SEM [5] | EC50 [3] [nM] | EC50 [4] [nM] | also measured
1 | CN(C)CCc1c[nH]c2ccc(F)cc12 [Compound 5-F-DMT] | 61.1 ± 2.0 | 96.6 ± 1.0 | 100.3 ± 1.8 | 6.65 | – | – | 5-HT2B-Ca2+ FLUX pEC50 ([1]; IA = Inactive, N=1-3): 8.70 ± 0.11; 5-HT1A-cAMP Emax (% 5-HT) [2, 6]: 94.2 ± 3.4 % 5-HT; 5-HT1A-cAMP pEC50 [2, 6]: 6.69 ± 0.08; 5-HT2A-Ca2+ FLUX pEC50 ([3]; IA = Inactive, N=1-3): 8.70 ± 0.03; 5-HT2C-Ca2+ FLUX pEC50 ([4]; IA = Inactive, N=1-3): 8.8 ± 0.06
2 | CCN(C)CCc1c[nH]c2c(F)cccc12 [Example 7, N-ethyl-2-(7-fluoro-1H-indol-3-yl)-N-methylethan-1-amine] | – | – | – | 6.02 | – | – | –
3 | C=CCN(CCc1c[nH]c2ccc(F)cc12)C(C)C [Example 11, N-(2-(5-fluoro-1H-indol-3-yl)ethyl)-N-isopropylprop-2-en-1-amine] | 98.8 ± 1.6 | 105.4 ± 2.1 | 101.5 ± 2.8 | – | 0.617 | 20.4 | EC50 [1]: 0.794 nM; EC50 [2]: 151 nM; 5-HT1A-cAMP Emax (% 5-HT) [2, 6]: 95.5 ± 1.7 % 5-HT
4 | C=CCN(CCc1c[nH]c2ccc(F)cc12)C1CCC1 [Example 14, N-allyl-N-(2-(5-fluoro-1H-indol-3-yl)ethyl)cyclobutanamine] | – | – | – | 6.09 | – | – | –
5 | CC(C)N(CC#N)CCc1c[nH]c2ccc(F)cc12 [compound 17, 2-((2-(5-fluoro-1H-indol-3-yl)ethyl)(isopropyl)amino)acetonitrile] | – | – | – | 5.41 | – | – | –
6 | CN(CCc1c[nH]c2ccc(F)cc12)C1CSC1 [compound 20, N-(2-(5-fluoro-1H-indol-3-yl)ethyl)-N-methylthietan-3-amine] | 17.3 ± 1.1 | 61.8 ± 3.2 | 55.0 ± 2.8 | – | – | – | EC50 [1, 7]: 2.4 nM; EC50 [2]: 794 nM; 5-HT1A-cAMP Emax (% 5-HT) [2, 6]: 93.1 ± 2.5 % 5-HT; EC50 [3, 8]: 28.8 nM; EC50 ([4]; IA = Inactive, N=1-3, read-out: 5-HT2C-Ca2+ FLUX pEC50 (converted)): 468 nM
7 | CCCN(CC)CCc1c[nH]c2ccc(F)c(F)c12 [compound 21, N-(2-(4,5-difluoro-1H-indol-3-yl)ethyl)-N-ethylpropan-1-amine] | – | – | – | 6.15 | – | – | –
8 | C#CCN(CCc1c[nH]c2ccc(F)cc12)C(C)C [compound 34, N-(2-(5-fluoro-1H-indol-3-yl)ethyl)-N-isopropylprop-2-yn-1-amine] | – | – | – | 5.78 | – | – | –
9 | C=CCN(CCC)CCc1c[nH]c2ccc(F)cc12 [compound 35, N-(2-(5-fluoro-1H-indol-3-yl)ethyl)-N-propylprop-2-en-1-amine] | – | – | – | 6.38 ± 0.29 | – | – | –
10 | CCCN(CC)CCc1c[nH]c2cc(Cl)c(F)cc12 [compound 37, N-(2-(6-chloro-5-fluoro-1H-indol-3-yl)ethyl)-N-ethylpropan-1-amine] | – | – | – | 6.04 ± 0.05 | – | – | –
11 | CC(C)CN(C)CCc1c[nH]c2ccc(F)cc12 [compound 39, N-(2-(5-fluoro-1H-indol-3-yl)ethyl)-N,2-dimethylpropan-1-amine] | – | – | – | 6.12 | – | – | –
12 | CCCN(CC)CCc1c[nH]c2c(F)cc(F)cc12 [compound 72, N-[2-(5,7-difluoro-1H-indol-3-yl)ethyl]-N-ethylpropan-1-amine] | – | – | – | 6.30 ± 0.06 | – | – | –
13 | CCCN(CC)CCc1c[nH]c2c(F)c(F)ccc12 [compound 82, N-(2-(6,7-difluoro-1H-indol-3-yl)ethyl)-N-ethylpropan-1-amine] | 86.3 ± 0.8 | 90.4 ± 0.7 | 89.6 ± 1.7 | 6.52 | 10.5 | 195 | EC50 [1]: 66.1 nM
14 | CCC(C)N(CCc1c[nH]c2ccc(F)cc12)C1CCC1 (stereo not shown) [compound 158, N-(sec-butyl)-N-(2-(5-fluoro-1H-indol-3-yl)ethyl)cyclobutanamine] | – | – | – | 6.08 ± 0.15 | – | – | –
15 | CN(CCc1c[nH]c2ccc(F)cc12)C1CC1 [compound 160, N-(2-(5-fluoro-1H-indol-3-yl)ethyl)-N-methylcyclopropanamine] | – | – | – | 7.41 ± 0.33 | – | – | –
16 | CCCN(CCc1c[nH]c2ccc(F)cc12)C1CC1 [compound 161, N-[2-(5-fluoro-1H-indol-3-yl)ethyl]-N-propylcyclopropanamine] | – | – | – | 6.50 | – | – | –
17 | CCCN(CCc1c[nH]c2c(F)cccc12)C1CCC1 [compound 162, N-(2-(7-fluoro-1H-indol-3-yl)ethyl)-N-propylcyclobutanamine] | – | – | – | 5.91 | – | – | –

Row | Compound | 5-HT2B-Ca2+ FLUX Emax (% 5-HT) ([1]; IA = Inactive, N=1-3) | 5-HT2A-Ca2+ FLUX Emax (% 5-HT) ([3]; IA = Inactive, N=1-3) | 5-HT2C-Ca2+ FLUX Emax (% 5-HT) ([4]; IA = Inactive, N=1-3) | 5-HT2A pKi ± SEM [5] | EC50 [3] [nM] | EC50 [4] [nM] | also measured
18 | CCCN(CCc1c[nH]c2c(F)cccc12)C(C)CC (stereo not shown) [compound 163, N-[2-(7-fluoro-1H-indol-3-yl)ethyl]-N-propylbutan-2-amine] | – | – | – | 5.65 ± 0.004 | – | – | –
19 | CCCN(CC)CCc1c[nH]c2c(F)c(F)c(F)cc12 [compound 165, N-ethyl-N-[2-(5,6,7-trifluoro-1H-indol-3-yl)ethyl]propan-1-amine] | 102.4 ± 0.8 | 103.0 ± 0.8 | 102.8 ± 1.7 | 6.69 | 4.57 | 38.9 | EC50 [1]: 7.41 nM
20 | CCN(C)CCc1c[nH]c2c(C)cc(F)cc12 [compound 169, N-ethyl-2-(5-fluoro-7-methyl-1H-indol-3-yl)-N-methylethan-1-amine] | – | – | – | 6.05 | – | – | –
21 | CCC(C)N(CCc1c[nH]c2ccc(F)cc12)C1CC1 (stereo not shown) [compound 172, N-(sec-butyl)-N-(2-(5-fluoro-1H-indol-3-yl)ethyl)cyclopropanamine] | 93.5 ± 0.8 | 94.0 ± 0.6 | 82.3 ± 1.7 | 6.47 | 3.98 | 151 | EC50 [1]: 6.46 nM
22 | Fc1ccc2[nH]cc(CCN(C3CCC3)C3CC3)c2c1 [compound 173, N-cyclopropyl-N-(2-(5-fluoro-1H-indol-3-yl)ethyl)cyclobutanamine] | 82.8 ± 0.8 | 87.4 ± 0.7 | 80.4 ± 1.2 | 6.58 | 7.24 | 302 | EC50 [1]: 17.8 nM
23 | CCN(C)CCc1c[nH]c2c(Br)cc(F)cc12 [compound 174, 2-(7-bromo-5-fluoro-1H-indol-3-yl)-N-ethyl-N-methylethan-1-amine] | – | 38.2 ± 1.4 | 39.9 ± 1.1 | 6.42 | 18.6 | 13.2 | –
24 | CCN(C)CCc1c[nH]c2cc(C)c(F)cc12 [compound 175, N-ethyl-2-(5-fluoro-6-methyl-1H-indol-3-yl)-N-methylethan-1-amine] | – | 48.6 ± 2.8 | 51.2 ± 2.0 | 5.96 | 6.76 | 102 | –
25 | C#CCN(CCc1c[nH]c2ccc(F)cc12)C(C)CC (stereo not shown) [compound 176, N-(2-(5-fluoro-1H-indol-3-yl)ethyl)-N-(prop-2-yn-1-yl)butan-2-amine] | 103.0 ± 0.6 | 97.8 ± 1.1 | 99.6 ± 1.5 | 5.89 | 40.7 | 191 | EC50 [1]: 28.8 nM
26 | CCC(C)N(CC#N)CCc1c[nH]c2ccc(F)cc12 (stereo not shown) [compound 177, 2-(sec-butyl(2-(5-fluoro-1H-indol-3-yl)ethyl)amino)acetonitrile] | – | – | – | 5.71 | – | – | –
27 | CCN(C)CCc1c[nH]c2cc(F)c(Cl)cc12 [compound 179, 2-(5-chloro-6-fluoro-1H-indol-3-yl)-N-ethyl-N-methylethan-1-amine] | 67.8 ± 0.6 | 79.3 ± 0.7 | 95.5 ± 1.0 | 6.93 | 10.7 | 22.9 | EC50 [1]: 10.7 nM
28 | C#CCN(CCC)CCc1c[nH]c2c(F)cccc12 [compound 180, N-(2-(7-fluoro-1H-indol-3-yl)ethyl)-N-propylprop-2-yn-1-amine] | 92.7 ± 1.2 | 80.7 ± 1.6 | 56.5 ± 2.1 | 5.75 | 79.4 | 631 | EC50 [1]: 38 nM
29 | CCCN(CC#N)CCc1c[nH]c2c(F)cccc12 [compound 181, 2-((2-(7-fluoro-1H-indol-3-yl)ethyl)(propyl)amino)acetonitrile] | 36.8 ± 0.7 | 68.7 ± 1.7 | – | 5.75 | – | – | EC50 [1, 7]: 295 nM; EC50 [3, 8]: 58.9 nM
30 | CCN(C)CCc1c[nH]c2c(Cl)cc(F)cc12 [compound 182, 2-(7-chloro-5-fluoro-1H-indol-3-yl)-N-ethyl-N-methylethan-1-amine] | – | – | – | 6.62 | – | – | –
31 | CCCN1CCC[C@@H]1Cc1c[nH]c2ccc(F)cc12 [compound 184, (R)-5-fluoro-3-((1-propylpyrrolidin-2-yl)methyl)-1H-indole] | – | – | – | 6.60 | – | – | –
32 | CN1CCC[C@@H]1Cc1c[nH]c2cc(F)c(F)cc12 [compound 185, (R)-5,6-difluoro-3-((1-methylpyrrolidin-2-yl)methyl)-1H-indole] | – | – | – | 6.90 | – | – | –
33 | CN1CCC[C@@H]1Cc1c[nH]c2c(F)cccc12 [compound 186, (R)-7-fluoro-3-((1-methylpyrrolidin-2-yl)methyl)-1H-indole] | – | – | – | 6.47 | – | – | –
